Test results from patent US8163740B2, “6-substituted benzoxazines” (Hoffmann-La Roche Inc., priority 2008, dated 2012).

The molecules below were run against recombinant human 5-HT5A receptor (Homo sapiens, UniProt P47898) (assay: [3H]LSD radioligand binding assay). Conditions: [3H]LSD (approximately 1 nM); membranes from HEK-EBNA cells transiently expressing 5-HT5A; Ki by Cheng-Prussoff equation; read-out: Ki.
Protocol: A [^3H]LSD radioligand binding assay was used to determine the affinity of the compounds for the recombinant human 5-HT5A receptor, in membranes from transiently (cDNA) expressed 5-HT5A receptors in Human Embryonic Kidney-EBNA (HEK-EBNA) cells. Assay buffer consisted of Tris (50 mM) buffer containing 1 mM EGTA, 10 mM MgCl2 (pH 7.4) and 10 μM pargyline. The binding assay was carried out in 96-well-plates in the presence of [^3H]LSD (approximately 1 nM), approximately 2 μg/well of membrane protein, and 0.5 mg of Ysi-poly-1-lysine SPA beads in a final volume of 200 μl of buffer. Non-specific binding was defined using methiothepin 2 μM. Compounds were tested at 10 concentrations. All assays were conducted in duplicate and repeated at least two times. Assay plates were incubated for 120 min at room temperature before centrifugation. Bound ligand was determined using a Packard Topcount scintillation counter. IC50 values were calculated using a non-linear curve fitting program and Ki values calculated using the Cheng-Prussoff equation.

recombinant human 5-HT5A receptor, sequence (P47898 whole entry): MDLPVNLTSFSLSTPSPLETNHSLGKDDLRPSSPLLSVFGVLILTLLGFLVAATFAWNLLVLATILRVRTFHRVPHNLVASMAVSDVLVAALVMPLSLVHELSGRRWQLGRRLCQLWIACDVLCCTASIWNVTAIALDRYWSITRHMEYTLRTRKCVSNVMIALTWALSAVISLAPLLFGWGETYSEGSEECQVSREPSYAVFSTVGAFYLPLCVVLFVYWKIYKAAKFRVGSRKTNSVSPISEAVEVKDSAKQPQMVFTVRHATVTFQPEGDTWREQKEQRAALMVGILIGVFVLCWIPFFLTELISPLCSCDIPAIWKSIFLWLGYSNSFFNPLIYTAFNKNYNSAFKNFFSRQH

Compound	Ki [nM]
Nc1ccc2c(c1)COC(NC1COc3cc(F)ccc31)=N2 (racemic) [Example 34, rac-N^2-(6-Fluoro-2,3-dihydro-benzofuran-3-yl)-4H-benzo[d][1,3]oxazine-2,6-diamine]	4.26
CN1CCN(CC(=O)Nc2ccc3c(c2)COC(NC2CCCCCC2)=N3)CC1 [Example 93, N-(2-Cycloheptylamino-4H-benzo[d][1,3]oxazin-6-yl)-2-(4-methyl-piperazin-1-yl)-acetamide]	10.8
COc1ccccc1CNC1=Nc2ccc(N)cc2CO1 [Example 4, N^2-(2-Methoxy-benzyl)-4H-benzo[d][1,3]oxazine-2,6-diamine]	6.05
CN1CCN(S(=O)(=O)Nc2ccc3c(c2)COC(N[C@@H]2CCCc4ccccc42)=N3)CC1 [Example 71, 4-Methyl-piperazine-1-sulfonic acid {2-[(R)-(1,2,3,4-tetrahydro-naphthalen-1-yl)amino]-4H-benzo[d][1,3]oxazin-6-yl}-amide]	138
O=S(=O)(Nc1ccc2c(c1)COC(N[C@@H]1CCc3ccccc31)=N2)N1CCCCC1 [Example 30, Piperidine-1-sulfonic acid [2-((R)-indan-1-ylamino)-4H-benzo[d][1,3]oxazin-6-yl]-amide]	4.2
O=S(=O)(Nc1ccc2c(c1)COC(NC1CCCCCC1)=N2)c1ccccc1 [Example 100, N-(2-Cycloheptylamino-4H-benzo[d][1,3]oxazin-6-yl)-benzenesulfonamide]	74.7
CC(C)NC(=O)Nc1ccc2c(c1)COC(NC1CCCCCC1)=N2 [Example 154, 1-(2-Cycloheptylamino-4H-benzo[d][1,3]oxazin-6-yl)-3-isopropyl-urea]	1.86
COCC(=O)Nc1ccc2c(c1)COC(N[C@@H]1CCc3ccccc31)=N2 [Example 19, N-[2-((R)-Indan-1-ylamino)-4H-benzo[d][1,3]oxazin-6-yl]-2-methoxy-acetamide]	4.1
CN(C)S(=O)(=O)Nc1ccc2c(c1)COC(Nc1cccc(C3CC3)c1)=N2 [Example 135, N′-{2-[(3-cyclopropylphenyl)amino]-4H-benzo[d][1,3]oxazin-6-yl}-N,N-dimethylsulfamide]	71.7
c1c[nH]c(CNc2ccc3c(c2)COC(NC2CCCCCC2)=N3)n1 [Example 105, N^2-Cycloheptyl-N^6-(1H-imidazol-2-ylmethyl)-4H-benzo[d][1,3]oxazine-2,6-diamine]	31.6
Nc1ccc2c(c1)COC(NC1CCOc3ccccc31)=N2 (racemic) [Example 75, rac-N^2-Chroman-4-yl-4H-benzo[d][1,3]oxazine-2,6-diamine]	16.3
O=C(CN1CCSCC1)Nc1ccc2c(c1)COC(N[C@@H]1CCc3ccccc31)=N2 [Example 65, N-[2-((R)-Indan-1-ylamino)-4H-benzo[d][1,3]oxazin-6-yl]-2-thiomorpholin-4-yl-acetamide]	7.62
COc1cccc2c1C(NC1=Nc3ccc(NC(=O)CN4CCN(C(C)C)CC4)cc3CO1)CO2 (racemic) [Example 12, rac-2-(4-Isopropyl-piperazin-1-yl)-N-[2-(4-methoxy-2,3-dihydro-benzofuran-3-ylamino)-4H-benzo[d][1,3]oxazin-6-yl]-acetamide]	9.28
COc1cccc2c1C(NC1=Nc3ccc(Nc4cccc(C(F)(F)F)n4)cc3CO1)CO2 (racemic) [Example 59, rac-N^2-(4-Methoxy-2,3-dihydro-benzofuran-3-yl)-N^6-(6-trifluoromethyl-pyridin-2-yl)-4H-benzo[d][1,3]oxazine-2,6-diamine]	7.82
Nc1ccc2c(c1)COC(NC1CCc3cc(F)ccc31)=N2 (racemic) [Example 11, rac-N^2-(5-Fluoro-indan-1-yl)-4H-benzo[d][1,3]oxazine-2,6-diamine]	1.26
COc1cccc2c1C(NC1=Nc3ccc(NS(=O)(=O)N(C)C)cc3CO1)CO2 (racemic) [Example 49, rac-N,N-(Dimethyl)-N′-{2-(4-Methoxy-2,3-dihydro-benzofuran-3-ylamino)-4H-benzo[d][1,3]oxazin-6-yl}-sulfamide]	21.1
Cc1ccc(CNC2=Nc3ccc(NC(=O)C4CC4)cc3CO2)o1 [Example 82, Cyclopropanecarboxylic acid {2-[(5-methyl-furan-2-ylmethyl)-amino]-4H-benzo[d][1,3]oxazin-6-yl}-amide]	11.7
CC(C)NC(=O)Nc1ccc2c(c1)COC(Nc1cccc(C3CC3)c1)=N2 [Example 151, 1-[2-(3-Cyclopropyl-phenylamino)-4H-benzo[d][1,3]oxazin-6-yl]-3-isopropyl-urea]	114
COc1cccc2c1C(NC1=Nc3ccc(Nc4nccc(C(F)(F)F)n4)cc3CO1)CC2 (racemic) [Example 81, rac-N^2-(7-Methoxy-indan-1-yl)-N^6-(4-trifluoromethyl-pyrimidin-2-yl)-4H-benzo[d][1,3]oxazine-2,6-diamine]	7.16

Compound	Ki [nM]
O=S(=O)(Nc1ccc2c(c1)COC(N[C@@H]1CCc3ccccc31)=N2)N1CCOCC1 [Example 31, Morpholine-4-sulfonic acid [2-((R)-indan-1-ylamino)-4H-benzo[d][1,3]oxazin-6-yl]-amide]	4.38
Nc1ccc2c(c1)COC(Nc1cccc(C3CC3)c1)=N2 [Example 119, N^2-(3-Cyclopropyl-phenyl)-4H-benzo[d][1,3]oxazine-2,6-diamine]	37.8
Nc1ccc2c(c1)COC(N[C@@H]1CCc3ccccc31)=N2 [Example 2, (R)-N^2-Indan-1-yl-4H-benzo[d][1,3]oxazine-2,6-diamine]	1.04
c1ccc2c(c1)CC[C@H]2NC1=Nc2ccc(C3CC3)cc2CO1 [Example 152, (6-Cyclopropyl-4H-benzo[d][1,3]oxazin-2-yl)-(R)-indan-1-yl-amine]	27.3
COCCNCC(=O)Nc1ccc2c(c1)COC(N[C@@H]1CCc3ccccc31)=N2 [Example 69, N-[2-((R)-Indan-1-ylamino)-4H-benzo[d][1,3]oxazin-6-yl]-2-(2-methoxy-ethylamino)-acetamide]	8.34
COc1cccc2c1C(NC1=Nc3ccc(NS(=O)(=O)N4CCCCC4)cc3CO1)CO2 (racemic) [Example 50, rac-Piperidine-1-sulfonic acid [2-(4-methoxy-2,3-dihydro-benzofuran-3-ylamino)-4H-benzo[d][1,3]oxazin-6-yl]-amide]	26.9
O=C(Nc1ccc2c(c1)COC(Nc1cccc(C3CC3)c1)=N2)C1CC1 [Example 128, Cyclopropanecarboxylic acid [2-(3-cyclopropyl-phenylamino)-4H-benzo[d][1,3]oxazin-6-yl]-amide]	23.5
CC(C)N1CCC(NC(=O)Nc2ccc3c(c2)COC(NC2CCCCCC2)=N3)CC1 [Example 124, 1-(2-Cycloheptylamino-4H-benzo[d][1,3]oxazin-6-yl)-3-(1-isopropyl-piperidin-4-yl)-urea]	3.32
COc1cccc2c1C(NC1=Nc3ccc(N)cc3CO1)CO2 (racemic) [Example 6, rac-N^2-(4-Methoxy-2,3-dihydro-benzofuran-3-yl)-4H-benzo[d][1,3]oxazine-2,6-diamine]	7.83
CN1CCN(CC(=O)Nc2ccc3c(c2)COC(N[C@@H]2CCCc4ccccc42)=N3)CC1 [Example 38, 2-(4-Methyl-piperazin-1-yl)-N-{2-[(R)-(1,2,3,4-tetrahydro-naphthalen-1-yl)amino]-4H-benzo[d][1,3]oxazin-6-yl}-acetamide]	3.16
CN1CCN(CC(=O)Nc2ccc3c(c2)COC(Nc2cccc(C4CC4)c2)=N3)CC1 [Example 126, N-[2-(3-Cyclopropyl-phenylamino)-4H-benzo[d][1,3]oxazin-6-yl]-2-(4-methyl-piperazin-1-yl)-acetamide]	37.7
c1ccc(CNc2ccc3c(c2)COC(Nc2cccc(C4CC4)c2)=N3)cc1 [Example 136, N^6-Benzyl-N^2-(3-cyclopropyl-phenyl)-4H-benzo[d][1,3]oxazine-2,6-diamine]	61.3
COc1cccc2c1C(NC1=Nc3ccc(NC(=O)CCl)cc3CO1)CO2 (racemic) [Example 8, rac-2-Chloro-N-[2-(4-methoxy-2,3-dihydro-benzofuran-3-ylamino)-4H-benzo[d][1,3]oxazin-6-yl]-acetamide]	20.7
Nc1ccc2c(c1)COC(N[C@@H]1CCCc3ccccc31)=N2 [Example 33, (R)-N^2-(1,2,3,4-Tetrahydro-naphthalen-1-yl)-4H-benzo[d][1,3]oxazine-2,6-diamine]	7.85
COc1cccc2c1C(NC1=Nc3ccc(N)cc3CO1)CCC2 (racemic) [Example 22, rac-N^2-(8-Methoxy-1,2,3,4-tetrahydro-naphthalen-1-yl)-4H-benzo[d][1,3]oxazine-2,6-diamine]	7.72
COc1cccc2c1C(NC1=Nc3ccc(NS(=O)(=O)N4CCCCC4)cc3CO1)CC2 (racemic) [Example 62, rac-Piperidine-1-sulfonic acid [2-(7-methoxy-indan-1-ylamino)-4H-benzo[d][1,3]oxazin-6-yl]-amide]	3.26
CC(C)N1CCC(NC(=O)Nc2ccc3c(c2)COC(Nc2cccc(C4CC4)c2)=N3)CC1 [Example 137, 1-[2-(3-Cyclopropyl-phenylamino)-4H-benzo[d][1,3]oxazin-6-yl]-3-(1-isopropyl-piperidin-4-yl)-urea]	5.32
COc1ccccc1CNC1=Nc2ccc(NC(=O)CN3CCN(C)CC3)cc2CO1 [Example 26, N-[2-(2-Methoxy-benzylamino)-4H-benzo[d][1,3]oxazin-6-yl]-2-(4-methyl-piperazin-1-yl)-acetamide]	6.12
